Laboratory results as given in PMC6005341, “Identification of “sarsasapogenin-aglyconed” timosaponins as novel Aβ-lowering modulators of amyloid precursor protein processing” (Chemical Science, 2016).

Tests used:
[1] = system: Aβ42 production in N2A-APPswe cells; test: Aβ42 in conditioned medium of N2A-APPswe cells by ELISA, 18 h treatment; assay type: cell-based; details: for Aβ42-lowering effect (in words) / decrease in Aβ42: N2A-APPswe cells; for IC50: N2a-APPswe, read-out: IC50 in lowering Aβ42 production, N2A-APPswe cells, mean ± standard deviation, n ≥ 3; for decrease in Aβ42: 18 h
From the text: Sigma-Aldrich Chemical Co. unless otherwise specified. SSG (1) was purchased from Wako Pure Chemical Industries, Ltd. Diosgenin (6), Dioscin (9), Polyphyllin D (10), Timosaponin BI (22) and Timosaponin BII (23) were purchased from Chengdu Must Bio-Technology Co.
Ltd. Yamogenin (7) was bought from Ambinter c/o Greenpharma while Smilagenin (24) was bought from Steraloids Inc. Substances dissolved in DMSO as stock solutions. Cell culture medium constituents were purchased from Life Technologies, Inc.
Cell culture: Neuro-2A cells expressing Swedish mutants of APP (N2A-APPswe provided by Prof. Yifan Han, The Hong Kong Polytechnic University)1 was cultured in minimal essential medium with 2 mM glutamine, 2 mM pyruvate and 10% fetal bovine serum. […]
(§1) Aβ ELISA: Aβ concentrations in conditioned medium were assayed using ELISA kits for […]

[2] = Plasma and brain concentrations by LC-MS/MS; assay type: in vivo, mice; details: for Plasma Precursor: mice n = 6, three repeated oral doses 100 mg/kg in two days
Description: Animal experiments: Male C57BL/6N mice were housed in environmentally controlled room (temperature: 25 ± 2 °C, humidity: 50 ± 5%, 12-h light-dark cycle) in Laboratory Animal Unit, The University of Hong Kong and were freely access to food and water. TAIII, TAI SSG and compound 34 were dissolved in 5% Tween 80 and given to the mice by oral gavage at three repeated doses of 100 mg/kg in 48 hours. Mice were administrated with 5% Tween 80 (control group), TAIII, TAI SSG and 34. The experimental procedures were performed with the approval of Committee of Use of Live Animal for Teaching and Research of The University of Hong Kong. Blood (about 600-800 µL) was collected by cardiac puncture and added with 1/10 volume of Na2EDTA (20 mg/mL) to prevent coagulation. After centrifugation at 3000 g for 15 min at 4 °C, plasma was transferred to a centrifuge tube. The brain was dissected into two hemispheres on ice, weighed and frozen in liquid nitrogen immediately. The left brain was homogenized with 1 mL of buffer containing 5 M guanidine HCl, 50 mM Tris HCl, pH 8.0, with protease inhibitor cocktail and AEBSF using a Polytron and the homogenates were allowed to stand at room temperature for 3h. Both plasma and brain samples were stored at -80 °C until they were analyzed. […]
B. Determination of timosaponin levels in mice plasma and brain by ultra-high pressure liquid chromatography tandem mass spectrometry
The UPLC-ESI-QTOF consists of a Waters Q-TOF PremierTM mass spectrometer (Micromass MS Technologies, Manchester, UK) operated in positive ion mode and a Waters ACQUITY TM UPLC system. The mass spectrometer conditions were optimized as follows: source […]
temperature, 120 °C; desolvation temperature, 500 °C; nebulization gas flow rate, 1000 L/h; cone gas flow rate, 20 L/h; capillary voltage, 2.5 kV; sampling cone voltage, 28V. The data were collected into two separate data channels with the instrument spending 0.5 s on data acquisition for each channel and a 0.1 s inter-channel delay. The mass spectrometer was calibrated by using the solution of sodium formate (0.5 mM) and the TOF scan range was from 100 to 1000 Da. In order to improve mass measurement accuracy a lock mass compound (50 pg µL−1 solution of leucine encephalin; m/z 556.2771) was continuously infused at a 0.5 mL min-1 using the built-in syringe pump of the instrument.
Sample was loaded into a Waters ACQUITY TM BEH C18 column (100 × 2.1 mm i.d., 1.7 µM) connected to a Waters ACQUITY TM BEH C18 guard column (5 × 2.1 mm i.d., 1.7 µM). The gradient elution system consisted of 0.1% formic acid in water (A) and 0.1% formic acid in acetonitrile (B). Separation was achieved by using: 30%-55% B from 0 to 3 min; 55-100% B from 3 to 6 min; 100% B from 6 to 12 min and returned to initial conditions and equilibrated for 3 minutes. The flow rate was 0.3 mL/min and the injection volume was 5 µL.
Standard preparation and sample preparation
Stock solution (10 µM ) of each analyte was prepared by dissolving in methanol. They were subject to serial dilution to give calibration curves of SSG 1 (plasma: y = 8.7485× - 0.0676; […]
each concentration of each analyte was transferred to a centrifuge tube and evaporated to dryness by a concentrator. Dioscin (20 µL , 10 µM) was added as an internal standard followed by methanol (130 µL) and control plasma (50 µL). The mixture was vortexed for 5 s and centrifuged (15000 × g) for 15 min. The supernatant was collected and evaporated to dryness by a concentrator. Methanol (100 µL) was added and then vortexed again for 10 s and centrifuged (15000 × g) for 20 min. The supernatant (5 µL) was subject to LC-MS/MS analysis. Analyte-treated plasma, control brain and analyte-treated brain were prepared in a […]
The acquisition and processing of data were performed by Masslynx (version 4.1) software.
Mass window of ±10 mDa and mass resolution of 9000 were set for both molecular ions and product ions. MS full scan was applied to acquire high abundant molecular ions [M+H]+ with […]

[3] = system: Aβ40 and Aβ38 in N2A-APPswe cells; test: Aβ40 and Aβ38 in conditioned medium of N2A-APPswe cells by ELISA; assay type: cell-based; details: compared with Aβ42
Description: as §1

[4] = mice n = 6, three oral doses 100 mg/kg in two days
[5] = any metabolite, mice n = 6, three oral doses 100 mg/kg in two days

Compound | Aβ42-lowering effect (in words) [1] | IC50 [1] [µM] | Brain Precursor [2, 4] | Plasma Precursor [2] [µM] | effect on Aβ40 and Aβ38 [3] | decrease in Aβ42 ([1]; 50 μM) [%] | decrease in Aβ42 ([1]; 100 μM) [%] | Brain Metabolite [2, 5] | Plasma Metabolite [2, 5]
C[C@H]1CC[C@@]2(OC1)O[C@H]1C[C@H]3[C@@H]4CC[C@@H]5C[C@@H](O[C@@H]6O[C@H](CO)[C@H](O)[C@H](O)[C@H]6O[C@@H]6O[C@H](CO)[C@@H](O)[C@H](O)[C@H]6O)CC[C@]5(C)[C@H]4CC[C@]3(C)[C@H]1[C@@H]2C [TAIII (2), timosaponin A III] | effectively lowered | ~2.3 | Not detected | 0.050 ± 0.058 | much smaller effect | – | – | – | –
C[C@H]1CC[C@@]2(OC1)O[C@H]1C[C@H]3[C@@H]4CC[C@@H]5C[C@@H](O)CC[C@]5(C)[C@H]4CC[C@]3(C)[C@H]1[C@@H]2C [SSG (1), sarsasapogenin] | – | 53 ± 9 | 1.042 ± 0.418 µM | 0.118 ± 0.062 | – | 55 | 40 | Not detected | Not detected
C[C@H]1CC[C@@]2(OC1)O[C@H]1C[C@H]3[C@@H]4CC[C@@H]5C[C@@H](O[C@@H]6O[C@H](CO)[C@H](O)[C@H](O)[C@H]6O)CC[C@]5(C)[C@H]4CC[C@]3(C)[C@H]1[C@@H]2C [TAI (3), timosaponin A I] | effectively lowered | ~6.1 | 1.174 ± 0.401 µM | 3.361 ± 0.925 | much smaller effect | – | – | – | –
